These results are taken from publication PMC5607274, “An iterative compound screening contest method for identifying target protein inhibitors using the tyrosine-protein kinase Yes” (Scientific Reports, 2017).

Molecules are shown by their SMILES.

In one test the target is T1, human recombinant Yes [a.a. 2–543 (end)] (Homo sapiens, UniProt P07947).
T1 construct: human recombinant Yes [a.a; 2–543 (end)]; purchased BPS Bioscience 40488
T1 sequence (P07947 2-543): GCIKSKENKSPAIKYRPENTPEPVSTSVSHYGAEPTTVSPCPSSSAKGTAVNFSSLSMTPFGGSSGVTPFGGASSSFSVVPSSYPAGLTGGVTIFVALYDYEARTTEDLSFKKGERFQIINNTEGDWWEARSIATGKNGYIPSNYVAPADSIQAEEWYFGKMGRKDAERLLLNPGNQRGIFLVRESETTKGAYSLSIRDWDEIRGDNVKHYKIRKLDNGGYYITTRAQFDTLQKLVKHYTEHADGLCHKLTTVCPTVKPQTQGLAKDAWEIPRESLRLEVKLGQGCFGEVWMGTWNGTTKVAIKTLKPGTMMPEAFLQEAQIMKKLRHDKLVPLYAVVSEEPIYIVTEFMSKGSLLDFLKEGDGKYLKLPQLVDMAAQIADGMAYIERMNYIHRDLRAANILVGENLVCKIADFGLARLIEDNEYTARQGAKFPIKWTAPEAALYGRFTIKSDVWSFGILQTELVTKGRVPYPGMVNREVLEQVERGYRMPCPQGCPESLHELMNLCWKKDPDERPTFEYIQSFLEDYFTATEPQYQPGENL
Briefly: ADP-Glo kinase assay, inhibition rates of Yes phosphorylation activity (first and second screening). The test is classed as biochemical. The following applies: first screening; mean of n = 4 wells; 10 μmol L−1 compound. In short, it runs like this:
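Hits from a first pass were rescreened after re-dissolution from fresh powder. The first pass reported the mean inhibition rate of quadruplicate wells per compound. Activity was that of recombinant human Yes [a.a. 2–543] kinase, read out with the ADP-Glo ADP-detection method.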
For the molecule `CSc1ccc(CSCc2nc(N)nc(Nc3ccccc3)n2)cc1` [Compound Z99558919], the “First screening IR (inhibition rate)” value is given as -15%.
As for `Cc1ccc(Cn2c(=O)c3ccccc3n3c(CCC(=O)NCCN(Cc4ccco4)C(C)C)nnc23)cc1` [Compound Z1169067782], the “First screening IR (inhibition rate)” value was 4%.
With `Cc1nccn1-c1ccc(C(C)Nc2ncnc3nc(N)ccc23)cc1` (stereo not shown) [Compound Z1537172697], the “First screening IR (inhibition rate)” value is on record as 53%.
On the same count and under the same terms, the figure for `Cc1ccnc(NC(=O)C2CCN(c3ccc(C#N)cc3F)CC2)c1` [Compound Z1002220042] is 1%; for `COC(=O)c1ccc2c(=O)[nH]c(COC(=O)Cc3ccsc3)nc2c1` [Compound Z54469331] it is 2%.
Still for that read-out and setting: the figure for `O=C(Nc1n[nH]c(-c2ccccn2)n1)c1ccc(-n2cccn2)c(F)c1` [Compound Z1128365659] is 4%.
Take `Cc1cc(C)nc(N/N=C/c2ccc3ncccc3c2)n1` [Compound Z49539423]: the “First screening IR (inhibition rate)” value is listed as -6%.
In the case of `Cn1nnnc1SCC(=O)c1c(-c2ccccc2)[nH]c2ccccc12` [Compound Z18519048], the “First screening IR (inhibition rate)” value came to 0%.
The same measure, in the same setting: the figure for `CCC(C)(C)C1C/C(=C/c2ccc(Sc3nncn3C)c([N+](=O)[O-])c2)c2nc3ccccc3c(C(=O)O)c2C1` (stereo not shown) [Compound Z46116775] is 11%; for `O=C(c1ccc(=O)[nH]c1)N1CCN(C(=O)c2cc3ccccc3o2)CC1` [Compound Z368093014] it is 48%.
Same read-out and setting: the figure for `O=C(Nc1nc2c(s1)CN(Cc1ccccc1)CC2)c1csc(-c2ccsc2)n1` [Compound Z108907460] is 8%.
Same read-out and setting: the figure for `O=C(NCCCn1ccnc1)C1CCN(C(=O)c2ccc(F)cc2)CC1` [Compound Z30216742] is 41%.
For the molecule `O=C(CN1C(=O)NC(Cc2c[nH]c3ccccc23)C1=O)Nc1ccc(-c2ccccc2)cc1` (stereo not shown) [Compound Z16202306], the “First screening IR (inhibition rate)” value turned out to be 6%.
On the same count and under the same terms, the result for `CCc1ccc(S(=O)(=O)N(CC)C2CCS(=O)(=O)C2)cc1` (stereo not shown) [Compound Z65566827] reads 2%.
Turning to `O=C(Nc1cccc(Cn2ccnc2)c1)c1cc2c(s1)-c1ccccc1OC2` [Compound Z362662212], the “First screening IR (inhibition rate)” value came out at 6%.
Same read-out and setting: the figure for `COc1cccc(OCCN2CCN(c3cc(C(C)(C)C)nc4c(-c5ccc(Cl)cc5)c(C)nn34)CC2)c1` [Compound Z431973470] is 12%; for `Cc1nc2n(n1)CC(NCc1cn[nH]c1-c1ccc(C)o1)CC2` (stereo not shown) [Compound Z1051950052] it is 20%; for `CN1CCC(N(c2ccccc2)S(=O)(=O)c2cc(Cl)cc3c2OCC3)CC1` [Compound Z1833465604] it is 9%.
With `CC(C)C(NC(=O)c1ccc(CNC(N)=O)cc1)c1ccccc1` (stereo not shown) [Compound Z96018682], the “First screening IR (inhibition rate)” value was -1%.
Regarding `CCn1ncc2c(C(=O)Nc3ccc(F)c([N+](=O)[O-])c3)cc(-c3cccs3)nc21` [Compound Z225316878], the “First screening IR (inhibition rate)” value was 31%.
The same measure, in the same setting: the result for `O=C(O)/C=C/c1cccc(NS(=O)(=O)/C=C/c2ccccc2)c1` [Compound Z56757962] reads 1%; that for `Cc1sc2nc(CSc3ccccc3)nc(N3CCCC3C(N)=O)c2c1C` (stereo not shown) [Compound Z31132453], 9%; that for `CN(C)c1nc(N)nc(COc2ccc3cc(Br)ccc3c2)n1` [Compound Z168931562], 5%.
For the molecule `CC(C)CN(C1CCS(=O)(=O)C1)S(=O)(=O)c1ccc(Cl)c(Cl)c1` (stereo not shown) [Compound Z45480661], the “First screening IR (inhibition rate)” value came to 1%.
On the same count and under the same terms, the figure for `CC1c2cc(Cl)cc(Cl)c2CCN1C(=O)c1cnc2n1CCCC2` (stereo not shown) [Compound Z1494913871] is 13%; for `Cc1cccc(-c2nc(NC(=O)C3Cc4cc(F)ccc4O3)n[nH]2)n1` (stereo not shown) [Compound Z1279679753] it is -4%; for `Cc1ccc(Cn2c(=O)c3c(nc4n(-c5ccc(S(N)(=O)=O)cc5)c(C)cn34)n(C)c2=O)cc1` [Compound Z244561242] it is 9%.
The same measure, in the same setting: the figure for `O=C(NCc1cnn(Cc2ccccc2)c1)Nc1ccncc1F` [Compound Z1677761301] is 4%; for `CCCn1c(CSc2ncn(-c3ccccc3)n2)nc2cc(S(=O)(=O)N(C)C)ccc21` [Compound Z227429876] it is -10%; for `N#Cc1ccc(-c2cc(-c3ccccc3)c3cc(Br)ccc3n2)cc1` [Compound Z415722772] it is -4%.
Same read-out and setting: the result for `Cn1c2ccccc2n2c3cccc(F)c3c(=O)c(C#N)c12` [Compound Z734467112] reads -1%; that for `O=C(NCCc1c[nH]c2cc(F)ccc12)c1cnc(-c2ccccc2)nc1` [Compound Z960870544], 43%; that for `O=C(NCc1cccc(C(F)(F)F)c1)c1n[nH]c(=O)c2ccccc12` [Compound Z29859952], 6%.
Turning to `N#Cc1cnc(NCCC(=O)N2CCc3sccc3C2)c(Cl)c1` [Compound Z1039090738], the “First screening IR (inhibition rate)” value was determined as 2%.
Still for that read-out and setting: the figure for `COc1cc(Br)c(S(=O)(=O)N(C)C(=O)C2CC2)cc1OC` [Compound Z643690740] is 0%.
On the same count and under the same terms, the figure for `CCN1CCN(c2cc(CNC(=O)c3cn(-c4ccccc4)nc3-c3ccc(OC)cc3)ccn2)CC1` [Compound Z955363064] is -5%; for `COc1cccc(OCCN2CCN(c3cc(C)nc4c(-c5ccc(F)cc5)c(C(F)(F)F)nn34)CC2)c1` [Compound Z432102126] it is -1%.
With `CN(CC(=O)NCc1ccco1)C(=O)/C=C/c1ccc(-n2ccnc2)cc1` [Compound Z62804747], the “First screening IR (inhibition rate)” value is recorded as 2%.
Take `Cc1cccc(NC(=O)CNC(=O)c2cn3c(C)cccc3n2)c1C` [Compound Z27271554]: the “First screening IR (inhibition rate)” value is recorded as 3%.
The same measure, in the same setting: the figure for `COc1ccc(/C=N/Nc2ncnc3sc(C)c(C)c23)cc1O` [Compound Z49890825] is 4%; for `COCCCCCn1ncc2ccc([N+](=O)[O-])cc21` [Compound Z1271542350] it is 7%; for `Cc1ccc(C)c(S(=O)(=O)N(CC(=O)Nc2ccc(Oc3ccccc3)cc2)Cc2ccc(F)cc2)c1` [Compound Z26125608] it is -6%.
As to `NC(=O)c1cc(-c2csc(NCc3ccccc3)n2)ccc1O` [Compound Z48850058], the “First screening IR (inhibition rate)” value stood at 39%.
For `O=C1Nc2ccccc2/C1=C\c1c(Cl)nc2sccn12` [Compound Z46060818], the “First screening IR (inhibition rate)” value is on record as 24%.
Take `NC(=O)COC(=O)c1cc(-c2ccccc2)nc2c1cnn2Cc1ccccc1` [Compound Z228517946]: the “First screening IR (inhibition rate)” value was found to be 4%.
For `Cc1cccc(C)c1NC(=O)CN1CCN(C(C(=O)N2CCCCC2)c2ccccc2)CC1` (stereo not shown) [Compound Z106611352], the “First screening IR (inhibition rate)” value is listed as -11%.
Same read-out and setting: the result for `Cc1ccc(S(=O)(=O)N2CCCN(S(=O)(=O)N3CC(C)CC(C)C3)CC2)cc1` (stereo not shown) [Compound Z300467774] reads 4%; that for `O=C(O)c1cccc(N/N=C/c2ccc(N(c3ccccc3)c3ccccc3)cc2)c1` [Compound Z49584790], 18%.
The same measure, in the same setting: the result for `O=C(CCc1ccc2ccccc2n1)OCCOc1ccc(S(=O)(=O)N2CCOCC2)cc1` [Compound Z166077876] reads -20%.
Take `Cc1ccccc1-c1cc(C(=O)O)c2cnn(C(C)C)c2n1` [Compound Z56643722]: the “First screening IR (inhibition rate)” value came out at 8%.
With `Nc1ncnc(Nc2ccccc2F)n1` [Compound Z56931704], the “First screening IR (inhibition rate)” value turned out to be 12%.
For `COc1cc(CNC(=O)C2CCCN2C(C)=O)ccc1OCc1cccnc1` (stereo not shown) [Compound Z396609184], the “First screening IR (inhibition rate)” value is on record as 7%.
Same read-out and setting: the result for `Cc1ccccc1Nc1nc(N)nc(CN(C)Cc2ccc(C(C)(C)C)cc2)n1` [Compound Z44561353] reads 5%.
Take `CNS(=O)(=O)c1ccc2c(c1)nc(-c1cc(C#N)n(C)c1)n2C` [Compound Z1837787694]: the “First screening IR (inhibition rate)” value is reported as -2%.
Still for that read-out and setting: the figure for `CC(C)Cn1c(=O)[nH]c(=O)c2c(C(=O)NCc3ccc(CN4CCOCC4)cc3)cc(C3CC3)nc21` [Compound Z338592020] is 6%; for `Cc1cc(Br)ccc1SCC(=O)OC/C(O)=C(\C#N)c1nc2ccccc2[nH]1` [Compound Z18738204] it is 43%.
`O=C(COC(=O)c1ccccc1OCc1ccccc1)Nc1ccc2c(c1)CCC2` [Compound Z18387854]: the “First screening IR (inhibition rate)” value was found to be 26%.
The same measure, in the same setting: the result for `CCC(C)(C)C1C/C(=C/c2cc(Br)c(O)c(OC)c2)c2nc3ccccc3c(C(=O)O)c2C1` (stereo not shown) [Compound Z46116622] reads 5%; that for `O=C(NCC(c1ccccc1Cl)N1CCCC1)C1CCN(C(=O)c2cccs2)CC1` (stereo not shown) [Compound Z87671607], -35%.
Same read-out and setting: the figure for `C=CCN(Cc1nnc(-c2ccc(Cl)cc2)o1)S(=O)(=O)c1ccc(NC(C)=O)cc1` [Compound Z26082391] is 3%.
Same read-out and setting: the result for `COc1ccccc1-c1cc(NC(=O)c2ccc(Cn3cncn3)cc2)n[nH]1` [Compound Z927972178] reads 13%; that for `O=C(Nc1nc(-c2ccc[nH]2)cs1)c1csc(-c2ccco2)n1` [Compound Z296244664], -6%.
`O=C(CSc1nc2ccccc2s1)Nc1cccc2c1C(=O)c1ccccc1C2=O` [Compound Z19654122]: the “First screening IR (inhibition rate)” value was 6%.

Still in this test, the particulars now being: second screening, dissolved from fresh powder; n = 4; 10 μmol L−1 compound.
Turning to `NC(=O)c1cc(-c2csc(NCc3ccccc3)n2)ccc1O` [Compound Z48850058], the “Second screening IR (inhibition rate)” value stood at 28%.
